Assay in all cases: biochemical
What all share (set-up): Upstate KinaseProfiler in vitro kinase activity assay, per cent of DMSO control
Holding throughout (conditions): read-out: Activity (% of Control)

One experiment has as its target T1, Abl(h) (Homo sapiens, UniProt P00519).
T1 construct: gene ABL1
The procedure:
(§1) Kinase profile and kinase assay. A Kinase profile against 100 kinases listed for resveratrol at 20 μM was generated utilizing Upstate's KinaseProfiler™ service. Assay protocols for each kinase are available from Upstate (Lake Placid, NY). In vitro kinase assay was performed as described previously. Briefly, HEK293 cells were transfected with HA-S6K1 wt, HA-S6K1 K100R, or vector as indicated. Cells were treated with 1 μg/ml insulin for 10 minutes prior to harvesting in PBS + 0.5% NP-40 + protease and phosphatase inhibitors. 125 μg of lysate per sample was immunoprecipitated using 0.5 μg/sample of anti-HA High-Affinity (Roche, Basel Switzerland). Beads from immunoprecipitations were washed three times in lysis buffer and once in kinase buffer, and kinase assays were performed with recombinant GST-S6 as substrate (1 μg per assay). In the indicated lanes varying doses of resveratrol or DMSO control were added to the reaction prior to addition of the GST-S6 substrate. All samples were subjected to SDS-PAGE, and 32P incorporation was quantified by using a Bio-Rad (Hercules, CA) Phosphor-Imager and subsequent analysis with ImageJ (NIH).  Figure 4. Resveratrol inhibits S6K1 in vitro. (A) Structural similarity between resveratrol and quercetin, a known kinase inhibitor. (B) Kinase inhibition profile for resveratrol at 20 μM obtained using KinaseProfiler™ (Upstate). Dashed line represents 100% activity as compared to control. Black filled-in bar on the graph indicates S6K1. Complete data set is provided in Supplementary Table 1. Error bars represent s.d.m. (C) Phosphorylation of recombinant GST-tagged S6 by immunoprecipitated HA-S6K1 under increasing concentrations of resveratrol (Res). Autoradiograph depicts S6K1 phosphorylation of GST-S6. (D) Average of three separate kinase assay experiments as performed in (C). Densitometry was performed using NIH ImageJ. Error bars represent s.e.m. […] Therefore, we hypothesized that the effect of resveratrol on autophagy could be related to inhibition of one or more upstream kinases. To test this, we performed an in vitro kinase screen and determined an inhibition profile for resveratrol. […] With the exception of S6K1, these kinases play primary roles in the hematopoietic system, and were thus viewed as unlikely to have been responsible for the effect we were studying. […] On the other hand, S6K1 is known to play a requisite role in the regulation of autophagy in Drosophila, making it a promising candidate for the in vivo target of resveratrol that is responsible for inhibition of autophagy.

The target in another experiment is T2, CDK5/p25(h) (Homo sapiens, UniProt Q00535).
T2 construct: p25
How it is done: as §1

Another experiment addresses T3, CDK5/p35(h) (Homo sapiens, UniProt Q00535).
T3 construct: p35
The procedure:
as §1

The target in a further experiment is CDK9/cyclin T1(h) (Homo sapiens, UniProt P50750). How it is done: as §1
A further experiment has as its target T4, CHK1(h) (Homo sapiens, UniProt O14757).
T4 construct: gene CHEK1
How it is done:
as §1

The next experiment concerns the target FGFR1(h) (Homo sapiens, UniProt P11362). The procedure:
as §1

The next experiment concerns the target Fgr(h) (Homo sapiens, UniProt P09769). How it is done: as §1
A further experiment deals with T5, GSK3α(h) (Homo sapiens, UniProt P49840).
T5 construct: gene GSK3A
The procedure:
as §1

Another experiment deals with T6, JNK3(h) (Homo sapiens, UniProt P53779).
T6 construct: gene MAPK10
The procedure: as §1

A further experiment addresses Jak2 (Homo sapiens, UniProt O60674). How it is done:
as §1

A further experiment deals with T7, MEK1(h) (Homo sapiens, UniProt Q02750).
T7 construct: gene MAP2K1
The procedure: as §1

A further experiment concerns the target NEK6(h) (Homo sapiens, UniProt Q9HC98). How it is done: as §1
The next experiment deals with T8, PKCγ(h) (Homo sapiens, UniProt P05129).
T8 construct: gene PRKCG
How it is done: as §1

In a further experiment the target is T9, PKCθ(h) (Homo sapiens, UniProt Q04759).
T9 construct: gene PRKCQ
T9 sequence (Q04759 whole entry): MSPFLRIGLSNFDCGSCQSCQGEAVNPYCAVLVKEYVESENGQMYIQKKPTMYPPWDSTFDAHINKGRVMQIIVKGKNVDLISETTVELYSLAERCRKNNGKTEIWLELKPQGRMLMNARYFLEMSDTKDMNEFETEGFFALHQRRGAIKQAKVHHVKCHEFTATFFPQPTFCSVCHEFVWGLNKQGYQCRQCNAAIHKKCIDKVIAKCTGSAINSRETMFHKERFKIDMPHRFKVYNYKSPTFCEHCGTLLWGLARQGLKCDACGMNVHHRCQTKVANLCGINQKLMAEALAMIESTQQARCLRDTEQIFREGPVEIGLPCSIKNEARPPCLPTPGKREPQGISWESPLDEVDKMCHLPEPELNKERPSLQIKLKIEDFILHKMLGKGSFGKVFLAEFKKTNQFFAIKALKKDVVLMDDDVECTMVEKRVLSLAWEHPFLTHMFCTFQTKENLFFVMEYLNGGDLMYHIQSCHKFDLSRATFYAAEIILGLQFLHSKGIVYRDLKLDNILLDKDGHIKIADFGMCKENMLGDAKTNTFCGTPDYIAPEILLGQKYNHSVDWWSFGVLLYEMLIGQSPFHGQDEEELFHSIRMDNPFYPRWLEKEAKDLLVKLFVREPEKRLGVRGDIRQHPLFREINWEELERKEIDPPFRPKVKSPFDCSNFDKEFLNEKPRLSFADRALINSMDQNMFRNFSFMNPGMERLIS
The procedure: as §1

For the next experiment, the target named is T10, SAPK2a(h) (Homo sapiens, UniProt Q16539).
T10 construct: gene MAPK14
T10 sequence (Q16539 whole entry): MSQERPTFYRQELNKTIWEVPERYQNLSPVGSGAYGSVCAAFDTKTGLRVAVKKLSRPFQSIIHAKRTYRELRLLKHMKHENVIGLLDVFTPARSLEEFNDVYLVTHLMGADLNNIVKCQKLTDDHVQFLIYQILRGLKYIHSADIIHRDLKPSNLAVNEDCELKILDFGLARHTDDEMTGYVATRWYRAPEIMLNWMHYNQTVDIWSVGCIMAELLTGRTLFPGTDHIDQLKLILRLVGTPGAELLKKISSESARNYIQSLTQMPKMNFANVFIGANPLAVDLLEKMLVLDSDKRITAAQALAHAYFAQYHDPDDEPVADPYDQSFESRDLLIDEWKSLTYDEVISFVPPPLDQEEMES
The procedure: as §1

The target in the next experiment is T11, SGK(h) (Homo sapiens, UniProt O00141).
T11 construct: gene SGK1
T11 sequence (O00141 whole entry): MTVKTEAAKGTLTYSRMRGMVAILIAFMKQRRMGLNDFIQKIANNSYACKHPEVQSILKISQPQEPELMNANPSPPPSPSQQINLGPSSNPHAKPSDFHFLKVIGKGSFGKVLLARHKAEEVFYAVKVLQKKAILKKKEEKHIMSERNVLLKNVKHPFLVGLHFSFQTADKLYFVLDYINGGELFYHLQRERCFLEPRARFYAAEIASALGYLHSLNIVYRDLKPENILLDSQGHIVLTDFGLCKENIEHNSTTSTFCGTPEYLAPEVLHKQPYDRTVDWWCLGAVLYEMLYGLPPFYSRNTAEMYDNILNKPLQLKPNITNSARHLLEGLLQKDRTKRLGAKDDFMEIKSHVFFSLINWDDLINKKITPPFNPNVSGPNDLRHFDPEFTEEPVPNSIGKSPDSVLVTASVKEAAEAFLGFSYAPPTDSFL
The procedure:
as §1

For a further experiment, the target named is SGK2(h) (Homo sapiens, UniProt Q9HBY8). The procedure: as §1
Another experiment concerns the target T12, p70S6K(h) (Homo sapiens, UniProt P23443).
T12 construct: gene RPS6KB1
How it is done: as §1

FGFR1(h), sequence (P11362 whole entry): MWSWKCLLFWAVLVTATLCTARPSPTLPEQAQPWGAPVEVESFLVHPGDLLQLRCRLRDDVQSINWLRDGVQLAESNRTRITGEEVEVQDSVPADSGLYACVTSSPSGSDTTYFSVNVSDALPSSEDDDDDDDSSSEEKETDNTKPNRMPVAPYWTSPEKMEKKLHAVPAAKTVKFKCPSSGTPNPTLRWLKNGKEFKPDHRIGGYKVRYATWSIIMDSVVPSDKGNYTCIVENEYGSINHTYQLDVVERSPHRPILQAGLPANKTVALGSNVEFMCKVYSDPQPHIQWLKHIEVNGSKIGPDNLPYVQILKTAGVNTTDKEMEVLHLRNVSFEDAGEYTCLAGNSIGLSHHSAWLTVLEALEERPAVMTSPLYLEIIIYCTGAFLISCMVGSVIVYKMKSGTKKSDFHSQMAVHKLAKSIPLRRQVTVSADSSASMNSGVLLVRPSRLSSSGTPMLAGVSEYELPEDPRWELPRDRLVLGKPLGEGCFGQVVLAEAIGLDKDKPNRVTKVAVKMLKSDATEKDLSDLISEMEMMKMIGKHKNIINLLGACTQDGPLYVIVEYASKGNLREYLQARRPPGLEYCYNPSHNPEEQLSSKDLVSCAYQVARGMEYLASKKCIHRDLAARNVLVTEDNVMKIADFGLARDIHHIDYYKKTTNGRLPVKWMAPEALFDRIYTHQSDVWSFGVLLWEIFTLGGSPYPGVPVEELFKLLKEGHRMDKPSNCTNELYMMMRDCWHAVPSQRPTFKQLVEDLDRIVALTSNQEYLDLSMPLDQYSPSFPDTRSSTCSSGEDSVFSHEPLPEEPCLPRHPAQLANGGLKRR
NEK6(h), sequence (Q9HC98 whole entry): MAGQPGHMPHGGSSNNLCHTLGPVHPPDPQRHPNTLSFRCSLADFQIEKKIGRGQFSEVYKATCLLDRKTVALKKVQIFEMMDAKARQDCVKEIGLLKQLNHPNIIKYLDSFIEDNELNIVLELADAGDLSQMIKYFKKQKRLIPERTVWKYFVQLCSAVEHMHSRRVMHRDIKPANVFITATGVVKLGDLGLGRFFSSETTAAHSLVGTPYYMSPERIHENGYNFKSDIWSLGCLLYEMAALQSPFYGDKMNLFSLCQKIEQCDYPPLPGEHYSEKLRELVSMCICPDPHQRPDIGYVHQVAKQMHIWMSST
Fgr(h), sequence (P09769 whole entry): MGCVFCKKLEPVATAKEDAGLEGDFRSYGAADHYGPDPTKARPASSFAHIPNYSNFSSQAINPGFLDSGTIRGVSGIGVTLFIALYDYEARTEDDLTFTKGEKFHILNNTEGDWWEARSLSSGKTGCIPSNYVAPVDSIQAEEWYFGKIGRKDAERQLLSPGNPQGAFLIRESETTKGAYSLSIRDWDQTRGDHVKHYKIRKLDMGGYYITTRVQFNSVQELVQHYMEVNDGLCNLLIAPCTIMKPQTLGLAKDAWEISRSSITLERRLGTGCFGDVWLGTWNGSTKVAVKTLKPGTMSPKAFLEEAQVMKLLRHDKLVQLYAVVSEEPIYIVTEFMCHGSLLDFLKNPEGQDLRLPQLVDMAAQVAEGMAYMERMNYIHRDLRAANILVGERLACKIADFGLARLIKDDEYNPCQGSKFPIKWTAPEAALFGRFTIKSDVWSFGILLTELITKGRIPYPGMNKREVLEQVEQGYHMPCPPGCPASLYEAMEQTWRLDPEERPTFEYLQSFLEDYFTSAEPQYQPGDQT
T1 sequence (P00519 whole entry): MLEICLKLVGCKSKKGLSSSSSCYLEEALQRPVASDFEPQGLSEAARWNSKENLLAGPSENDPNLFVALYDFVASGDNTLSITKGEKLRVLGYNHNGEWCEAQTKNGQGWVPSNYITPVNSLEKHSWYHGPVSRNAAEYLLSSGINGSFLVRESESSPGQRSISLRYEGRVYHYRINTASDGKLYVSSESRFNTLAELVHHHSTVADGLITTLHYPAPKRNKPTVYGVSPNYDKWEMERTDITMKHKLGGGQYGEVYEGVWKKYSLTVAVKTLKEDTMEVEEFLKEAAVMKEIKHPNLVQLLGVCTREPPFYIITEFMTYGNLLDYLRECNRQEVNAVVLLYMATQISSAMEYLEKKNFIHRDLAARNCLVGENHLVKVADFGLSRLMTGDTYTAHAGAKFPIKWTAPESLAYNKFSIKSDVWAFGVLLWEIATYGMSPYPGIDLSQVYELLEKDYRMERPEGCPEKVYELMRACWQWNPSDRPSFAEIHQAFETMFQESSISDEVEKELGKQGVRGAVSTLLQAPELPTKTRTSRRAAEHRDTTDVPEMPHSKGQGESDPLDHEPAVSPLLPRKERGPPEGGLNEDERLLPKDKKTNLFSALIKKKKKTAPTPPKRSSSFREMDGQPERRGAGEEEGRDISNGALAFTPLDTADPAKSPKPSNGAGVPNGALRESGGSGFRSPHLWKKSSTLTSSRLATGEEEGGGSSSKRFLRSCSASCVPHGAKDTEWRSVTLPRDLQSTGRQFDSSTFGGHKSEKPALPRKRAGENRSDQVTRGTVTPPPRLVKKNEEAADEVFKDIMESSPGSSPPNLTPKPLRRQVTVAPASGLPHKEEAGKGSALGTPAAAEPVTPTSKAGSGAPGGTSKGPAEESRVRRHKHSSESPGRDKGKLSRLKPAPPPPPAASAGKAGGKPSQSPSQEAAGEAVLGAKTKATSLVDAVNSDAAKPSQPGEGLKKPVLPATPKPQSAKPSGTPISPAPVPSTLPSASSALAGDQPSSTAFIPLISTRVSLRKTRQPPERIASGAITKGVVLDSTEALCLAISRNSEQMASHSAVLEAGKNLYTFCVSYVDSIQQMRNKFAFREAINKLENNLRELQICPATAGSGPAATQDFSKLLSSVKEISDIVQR
T3 sequence (Q00535 whole entry): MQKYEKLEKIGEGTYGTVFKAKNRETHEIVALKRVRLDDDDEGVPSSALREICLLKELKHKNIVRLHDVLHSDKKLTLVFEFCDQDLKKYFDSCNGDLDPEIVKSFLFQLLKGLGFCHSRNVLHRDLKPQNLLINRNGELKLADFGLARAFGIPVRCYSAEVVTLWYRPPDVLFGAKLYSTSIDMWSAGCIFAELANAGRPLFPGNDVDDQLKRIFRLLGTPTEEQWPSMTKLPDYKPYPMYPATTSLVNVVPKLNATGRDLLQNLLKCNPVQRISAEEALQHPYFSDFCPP
T3 sequence (Q15078 whole entry partner): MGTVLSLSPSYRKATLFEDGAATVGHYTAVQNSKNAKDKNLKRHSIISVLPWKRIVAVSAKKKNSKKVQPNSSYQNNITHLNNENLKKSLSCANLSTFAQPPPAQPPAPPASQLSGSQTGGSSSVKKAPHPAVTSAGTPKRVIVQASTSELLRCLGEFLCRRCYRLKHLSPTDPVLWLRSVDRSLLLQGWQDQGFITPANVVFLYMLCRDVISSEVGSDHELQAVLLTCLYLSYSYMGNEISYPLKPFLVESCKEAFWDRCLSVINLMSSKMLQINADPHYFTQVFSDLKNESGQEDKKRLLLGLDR

Take `Oc1ccc(/C=C/c2cc(O)cc(O)c2)cc1` [Res, resveratrol]: the remaining activity at 20 µM at Abl(h) worked out at 105 ± 7%; on CDK5/p25(h), 64 ± 4%; on CDK5/p35(h) it was 77 ± 2%; at CDK9/cyclin T1(h) it was 70 ± 3%; at CHK1(h) it was 95 ± 2%; at FGFR1(h), 58 ± 2%. Moreover, the remaining activity at 20 µM was found to be 78 ± 5% on Fgr(h); 79 ± 4% on GSK3α(h); 98 ± 3% on JNK3(h); 27 ± 5% on Jak2; 110 ± 5% on MEK1(h); 140 ± 16% on NEK6(h). The remaining activity at 20 µM on PKCγ(h) is 80 ± 8%; at PKCθ(h), 99 ± 5%; on SAPK2a(h), 100 ± 4%; at SGK(h), 86 ± 13%; on SGK2(h) it was 70 ± 1%; on p70S6K(h) it was 21 ± 1%.

These data come from publication PMC2806030, “Inhibition of mammalian S6 kinase by resveratrol suppresses autophagy” (Aging (Albany NY), 2009).
